According to patent US6465499B1 (priority 1996, dated 2002):

Assays:
Phytophthora infestans = type: in vivo; conditions: tomato young plants, protective spray, rate of application 100 g/ha, evaluated 3 days after inoculation; 0% = as control, 100% = no disease

Cc1noc(C)c1S(=O)(=O)n1c(=O)sc2c(C(F)(F)F)cc(C(F)(F)F)cc21 [Example 7]
Efficacy in % (Phytophthora infestans): 93% | melting point: 152 to 156 °C

Cc1noc(C)c1S(=O)(=O)n1c(=O)sc2c(C(F)(F)F)cc([N+](=O)[O-])cc21 [Example 6]
Efficacy in % (Phytophthora infestans): 93% | melting point: 210 to 213 °C

Cc1noc(C)c1S(=O)(=O)n1c(=O)oc2ccc(Cl)cc21 [Example 4]
Efficacy in % (Phytophthora infestans): 86% | melting point: 183 to 187 °C

Cc1noc(C)c1S(=O)(=O)n1c(=O)oc2c(Cl)cc(Cl)cc21 [Example 3]
Efficacy in % (Phytophthora infestans): 93% | melting point: 164 to 166 °C

Cc1noc(C)c1S(=O)(=O)n1c(=O)sc2c([N+](=O)[O-])cc(C(F)(F)F)cc21 [Example 5]
Efficacy in % (Phytophthora infestans): 100% | melting point: 129 to 133 °C
